Data published in US12396461B2, “Functional peptides having antimicrobial activity against phytopathogenic microorganisms” (TOYOTA JIDOSHA KABUSHIKI KAISHA, priority 2019, dated 2025).
Where two headings read alike, the source gives them in different places.

Tests used:
Assay type in all cases: cell-based
Fusarium oxysporum = system: Fusarium oxysporum; parameters: key to Plate antimicrobial activity test Fusarium oxysporum, level: a case where hyphae extended to the entire well and no antimicrobial activity was found is defined as “level 0,”; a case where hyphae extended to less than a half of the well and thus the peptide inhibited the growth of the hyphae is defined as “level 1,”; a case where ungerminated spores were present and the peptide partially inhibited the germination is defined as “level 2,”; a case where all spores were ungerminated and the peptide completely inhibited the germination is defined as “level 3.”
[1] = system: Colletotrichum orbiculare; parameters: key to Plate antimicrobial activity test Colletotrichum orbiculare, level: a case where hyphae extended to the entire well and no antimicrobial activity was found is defined as “level 0,”; a case where hyphae extended to less than a half of the well and thus the peptide inhibited the growth of the hyphae is defined as “level 1,”; a case where ungerminated spores were present and the peptide partially inhibited the germination is defined as “level 2,”; a case where all spores were ungerminated and the peptide completely inhibited the germination is defined as “level 3.”; details: 25° C. for 1 day or 2 days, microscopic observation
[2] = system: Colletotrichum destructivum; parameters: key to Plate antimicrobial activity test Colletotrichum destructivum, level: a case where hyphae extended to the entire well and no antimicrobial activity was found is defined as “level 0,”; a case where hyphae extended to less than a half of the well and thus the peptide inhibited the growth of the hyphae is defined as “level 1,”; a case where ungerminated spores were present and the peptide partially inhibited the germination is defined as “level 2,”; a case where all spores were ungerminated and the peptide completely inhibited the germination is defined as “level 3.”; details: 25° C. for 1 day or 2 days, microscopic observation
Botrytis cinerea = system: Botrytis cinerea; parameters: key to Plate antimicrobial activity test Botrytis cinerea, level: a case where hyphae extended to the entire well and no antimicrobial activity was found is defined as “level 0,”; a case where hyphae extended to less than a half of the well and thus the peptide inhibited the growth of the hyphae is defined as “level 1,”; a case where ungerminated spores were present and the peptide partially inhibited the germination is defined as “level 2,”; a case where all spores were ungerminated and the peptide completely inhibited the germination is defined as “level 3.”; details: 25° C. for 1 day or 2 days, microscopic observation
Pyricularia oryzae = system: Pyricularia oryzae; parameters: key to Plate antimicrobial activity test Pyricularia oryzae, level: a case where hyphae extended to the entire well and no antimicrobial activity was found is defined as “level 0,”; a case where hyphae extended to less than a half of the well and thus the peptide inhibited the growth of the hyphae is defined as “level 1,”; a case where ungerminated spores were present and the peptide partially inhibited the germination is defined as “level 2,”; a case where all spores were ungerminated and the peptide completely inhibited the germination is defined as “level 3.”; details: 25° C. for 1 day or 2 days, microscopic observation

Substance	Plate antimicrobial activity test Fusarium oxysporum, level (Fusarium oxysporum)	Plate antimicrobial activity test Colletotrichum orbiculare, level ([1]; peptide 1 μM)	Plate antimicrobial activity test Colletotrichum orbiculare, level ([1]; peptide 10 μM)	Plate antimicrobial activity test Colletotrichum orbiculare, level ([1]; peptide 100 μM)	Plate antimicrobial activity test Colletotrichum destructivum, level ([2]; peptide 1 μM)	Plate antimicrobial activity test Colletotrichum destructivum, level ([2]; peptide 10 μM)	Plate antimicrobial activity test Colletotrichum destructivum, level ([2]; peptide 100 μM)	Plate antimicrobial activity test Botrytis cinerea, level (Botrytis cinerea; peptide 1 μM)	Plate antimicrobial activity test Botrytis cinerea, level (Botrytis cinerea; peptide 10 μM)	Plate antimicrobial activity test Botrytis cinerea, level (Botrytis cinerea; peptide 100 μM)	Plate antimicrobial activity test Pyricularia oryzae, level (Pyricularia oryzae; peptide 1 μM)	Plate antimicrobial activity test Pyricularia oryzae, level (Pyricularia oryzae; peptide 10 μM)	Plate antimicrobial activity test Pyricularia oryzae, level (Pyricularia oryzae; peptide 100 μM)
KVKNKKVA (listed as Solanum lycopersicum) [TsORF6-1-8aa-10, partial peptide of TsORF6-1, 8 amino acid residues]	0	0	0	0	0	0	0	0	0	0	0	0	0
MIVVK (listed as Solanum lycopersicum) [TsORF6-1-5aa-4, partial peptide of TsORF6-1, 5 amino acid residues]	0	0	0	1	0	0	1	0	0	1	0	0	1
MIVVKTKV (listed as Solanum lycopersicum) [TsORF6-1-8aa-4, partial peptide of TsORF6-1, 8 amino acid residues]	0	0	0	0	0	0	0	0	0	0	0	0	0
NKKVA (listed as Solanum lycopersicum) [TsORF6-1-5aa-13, partial peptide of TsORF6-1, 5 amino acid residues]	0	0	0	0	0	0	0	0	0	0	0	0	0
NKKVAKMM (listed as Solanum lycopersicum) [TsORF6-1-8aa-13, partial peptide of TsORF6-1, 8 amino acid residues]	0	0	0	0	0	0	0	0	0	0	0	0	0
TKVKN (listed as Solanum lycopersicum) [TsORF6-1-5aa-9, partial peptide of TsORF6-1, 5 amino acid residues]	0	0	0	0	0	0	0	0	0	0	0	0	0
TKVKNKKV (listed as Solanum lycopersicum) [TsORF6-1-8aa-9, partial peptide of TsORF6-1, 8 amino acid residues]	0	0	0	0	0	0	0	0	0	0	0	0	0
VKNKK (listed as Solanum lycopersicum) [TsORF6-1-5aa-11, partial peptide of TsORF6-1, 5 amino acid residues]	0	0	0	0	0	0	0	0	0	0	0	0	0
VKNKKVAK (listed as Solanum lycopersicum) [TsORF6-1-8aa-11, partial peptide of TsORF6-1, 8 amino acid residues]	0	0	0	0	0	0	0	0	0	0	0	0	0
VKTKV (listed as Solanum lycopersicum) [TsORF6-1-5aa-7, partial peptide of TsORF6-1, 5 amino acid residues]	0	0	0	0	0	0	0	0	0	0	0	0	0
